{
  "source": "PubChem BioAssay (NCI)",
  "assay_in_all_cases": "growth of human tumour cells (NCI), 48 h",
  "key": {"[1]": {"test_system": "HCC-2998 colon"}, "[2]": {"test_system": "SR leukemia"}, "[3]": {"test_system": "SW-620 colon"}, "[4]": {"test_system": "A549 NSCLC"}, "[5]": {"test_system": "RXF 393 renal"}, "[6]": {"test_system": "SF-268 CNS"}, "[7]": {"test_system": "MCF7 breast"}, "[8]": {"test_system": "KM12 colon"}, "[9]": {"test_system": "CAKI-1 renal"}, "[10]": {"test_system": "NCI-H460 lung"}, "[11]": {"test_system": "U251 CNS"}, "[12]": {"test_system": "786-0 renal"}, "[13]": {"test_system": "SK-OV-3 ovarian"}, "[14]": {"test_system": "A498 renal"}, "[15]": {"test_system": "MOLT-4 leukemia"}, "[16]": {"test_system": "OVCAR-8 ovarian"}, "[17]": {"test_system": "SNB-19 CNS"}, "[18]": {"test_system": "BT-549 breast"}, "[19]": {"test_system": "NCI-H226 lung"}, "[20]": {"test_system": "M14 melanoma"}, "[21]": {"test_system": "HCT-116 colon"}, "[22]": {"test_system": "SN12C renal"}, "[23]": {"test_system": "HT29 colon"}, "[24]": {"test_system": "SF-295 CNS"}, "[25]": {"test_system": "HOP-92 NSCLC"}, "[26]": {"test_system": "OVCAR-5 ovarian"}, "[27]": {"test_system": "LOX IMVI melanoma"}},
  "note": "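How tested: cells in 96-well plates exposed to compound for 48 hours at five concentrations. GI50 marks 50% less growth. TGI: concentration producing complete growth inhibition.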",
  "data": [
    {"smiles": "C[CH2][Pb]([CH2]C)([CH2]C)[O]C(=O)COc1ccccc1", "values": [
      {"measurement": "GI50", "setting": "[1]", "value": 1650, "unit": "nM"},
      {"measurement": "TGI", "setting": "[1]", "value": 3850, "unit": "nM"},
      {"measurement": "GI50", "setting": "[2]", "value": 595, "unit": "nM"},
      {"measurement": "TGI", "setting": "[2]", "value": 3880, "unit": "nM"},
      {"measurement": "GI50", "setting": "[3]", "value": 641, "unit": "nM"},
      {"measurement": "TGI", "setting": "[3]", "value": 2470, "unit": "nM"},
      {"measurement": "GI50", "setting": "[4]", "value": 1820, "unit": "nM"},
      {"measurement": "TGI", "setting": "[4]", "value": 5650, "unit": "nM"},
      {"measurement": "GI50", "setting": "[5]", "value": 1050, "unit": "nM"},
      {"measurement": "TGI", "setting": "[5]", "value": 3260, "unit": "nM"},
      {"measurement": "GI50", "setting": "[6]", "value": 1670, "unit": "nM"},
      {"measurement": "TGI", "setting": "[6]", "value": 4540, "unit": "nM"},
      {"measurement": "GI50", "setting": "[7]", "value": 1770, "unit": "nM"},
      {"measurement": "TGI", "setting": "[7]", "value": 9340, "unit": "nM"},
      {"measurement": "GI50", "setting": "[8]", "value": 1510, "unit": "nM"},
      {"measurement": "TGI", "setting": "[8]", "value": 5840, "unit": "nM"},
      {"measurement": "GI50", "setting": "[9]", "value": 1950, "unit": "nM"},
      {"measurement": "TGI", "setting": "[9]", "value": 6180, "unit": "nM"},
      {"measurement": "GI50", "setting": "[10]", "value": 2210, "unit": "nM"},
      {"measurement": "TGI", "setting": "[10]", "value": 5940, "unit": "nM"},
      {"measurement": "GI50", "setting": "[11]", "value": 1740, "unit": "nM"},
      {"measurement": "TGI", "setting": "[11]", "value": 3890, "unit": "nM"},
      {"measurement": "GI50", "setting": "[12]", "value": 2130, "unit": "nM"},
      {"measurement": "TGI", "setting": "[12]", "value": 5720, "unit": "nM"},
      {"measurement": "GI50", "setting": "[13]", "value": 2080, "unit": "nM"},
      {"measurement": "TGI", "setting": "[13]", "value": 6100, "unit": "nM"},
      {"measurement": "GI50", "setting": "[14]", "value": 1750, "unit": "nM"},
      {"measurement": "TGI", "setting": "[14]", "value": 6610, "unit": "nM"},
      {"measurement": "GI50", "setting": "[15]", "value": 1950, "unit": "nM"},
      {"measurement": "TGI", "setting": "[15]", "value": 4630, "unit": "nM"},
      {"measurement": "GI50", "setting": "[16]", "value": 1760, "unit": "nM"},
      {"measurement": "TGI", "setting": "[16]", "value": 5680, "unit": "nM"},
      {"measurement": "GI50", "setting": "[17]", "value": 2360, "unit": "nM"},
      {"measurement": "TGI", "setting": "[17]", "value": 11300, "unit": "nM"},
      {"measurement": "GI50", "setting": "[18]", "value": 1780, "unit": "nM"},
      {"measurement": "TGI", "setting": "[18]", "value": 6400, "unit": "nM"},
      {"measurement": "GI50", "setting": "[19]", "value": 1830, "unit": "nM"},
      {"measurement": "TGI", "setting": "[19]", "value": 6040, "unit": "nM"},
      {"measurement": "GI50", "setting": "[20]", "value": 1390, "unit": "nM"},
      {"measurement": "TGI", "setting": "[20]", "value": 6670, "unit": "nM"},
      {"measurement": "GI50", "setting": "[21]", "value": 1440, "unit": "nM"},
      {"measurement": "TGI", "setting": "[21]", "value": 2900, "unit": "nM"},
      {"measurement": "GI50", "setting": "[22]", "value": 2390, "unit": "nM"},
      {"measurement": "TGI", "setting": "[22]", "value": 9610, "unit": "nM"},
      {"measurement": "GI50", "setting": "[23]", "value": 1740, "unit": "nM"},
      {"measurement": "TGI", "setting": "[23]", "value": 4610, "unit": "nM"},
      {"measurement": "GI50", "setting": "[24]", "value": 1510, "unit": "nM"},
      {"measurement": "TGI", "setting": "[24]", "value": 3130, "unit": "nM"},
      {"measurement": "GI50", "setting": "[25]", "value": 390, "unit": "nM"},
      {"measurement": "TGI", "setting": "[25]", "value": 4100, "unit": "nM"},
      {"measurement": "GI50", "setting": "[26]", "value": 1740, "unit": "nM"},
      {"measurement": "TGI", "setting": "[26]", "value": 4610, "unit": "nM"},
      {"measurement": "GI50", "setting": "[27]", "value": 1400, "unit": "nM"}
    ]}
  ]
}
